Results as given in ChEMBL document CHEMBL1138147, “Respiratory syncytial virus fusion inhibitors. Part 3: Water-soluble benzimidazol-2-one derivatives with antiviral activity in vivo” (Bioorg Med Chem Lett, 2006).

Legend:
HEp-2 = test: Cytotoxicity against human Hep2 cells infected with RSV Long strain; format: functional
[1] = Therapeutic index (CC50/EC50) for RSV infected Hep2 cells; format: cell-based, HEp-2; settings: human, read-out: Ratio CC50/EC50
[2] = system: Respiratory syncytial virus; test: Antiviral activity against RSV Long strain in human Hep2 cells; format: functional, organism-based; settings: HEp-2
Cotton rat [3] = test: Efficacy in cotton rat measured as reduction in log TCID50 of RSV per gram of lung at 0.67 mg/mL; format: functional, Sigmodon
Cotton rat [4] = test: Efficacy in cotton rat measured as reduction in log TCID50 of RSV per gram of lung at 1.33 mg/mL; format: functional, organism-based; settings: Sigmodon
Cotton rat [5] = test: Efficacy in cotton measured as reduction in log TCID50 of RSV per gram of lung rat at 0.05 mg/mL; format: functional, Sigmodon
Cotton rat [6] = test: Efficacy in cotton rat measured as reduction in log TCID50 of RSV per gram of lung at 0.2 mg/mL; format: functional, Sigmodon
Cotton rat [7] = test: Efficacy in cotton rat measured as reduction in log TCID50 of RSV per gram of lung at 2.0 mg/mL; format: functional, Sigmodon
Cotton rat [8] = test: Efficacy in cotton rat measured as reduction in log TCID50 of RSV per gram of lung at 0.01 mg/mL; format: functional, Sigmodon
Mus musculus [9] = test: Efficacy in BALB/c mouse measured as reduction in log TCID50 of RSV per gram of lung at 120 mg/kg, sc; format: functional; settings: route subcutaneous
Cotton rat [10] = test: Efficacy in cotton rat measured as reduction in log TCID50 of RSV per gram of lung at 0.5 mg/mL; format: functional, Sigmodon
Mus musculus [11] = test: Efficacy in BALB/c mouse measured as reduction in log TCID50 of RSV per gram of lung at 90 mg/kg, sc; format: functional; settings: route subcutaneous
Cotton rat [12] = test: Efficacy in cotton rat measured as reduction in log TCID50 of RSV per gram of lung at 90 mg/kg, ip; format: functional, Sigmodon; settings: route intraperitoneal
Cotton rat [13] = test: Efficacy in cotton rat measured as reduction in log TCID50 of RSV per gram of lung at 1.0 mg/mL; format: functional, Sigmodon
Cotton rat [14] = test: Efficacy in cotton rat measured as reduction in log TCID50 of RSV per gram of lung at 1.6 mg/mL; format: functional, Sigmodon

O=C(O)Cn1c(=O)n(Cc2nc3ccccc3[nH]2)c2ccccc21
CC50 (HEp-2): 20600 nM | selectivity ratio [1]: 133 | EC50 [2]: 155 nM

O=c1n(Cc2ccc(O)cc2)c2ccccc2n1Cc1nc2ccccc2[nH]1
CC50 (HEp-2): 58700 nM | selectivity ratio [1]: 932 | EC50 [2]: 63 nM

CC(C)CCn1c(Cn2c(=O)n(Cc3cc(C(=O)O)cc(C(=O)O)c3)c3ccccc32)nc2ccccc21
CC50 (HEp-2): > 168000 nM | selectivity ratio [1]: > 256 | EC50 [2]: 656 nM

O=C(O)c1ccc(Cn2c(=O)n(Cc3nc4ccccc4n3CCCO)c3ccccc32)cc1
CC50 (HEp-2): 210000 nM | selectivity ratio [1]: 4280 | EC50 [2]: 49 nM

O=C(O)c1ccc(Cn2c(=O)n(Cc3nc4ccccc4[nH]3)c3ccccc32)cc1
CC50 (HEp-2): 75500 nM | Efficacy (Cotton rat [3]): 3.6 | selectivity ratio [1]: 5400 | EC50 [2]: 14 nM

CC(C)CCn1c(Cn2c(=O)n(CCCN(C)C)c3ccccc32)nc2ccccc21
CC50 (HEp-2): 5300 nM | selectivity ratio [1]: 18 | EC50 [2]: 292 nM

CC(C)CCn1c(Cn2c(=O)n(Cc3ccccc3C(=O)N[C@@H](CC(=O)O)C(=O)O)c3ccccc32)nc2ccccc21
CC50 (HEp-2): 154000 nM | selectivity ratio [1]: ≥ 25700 | EC50 [2]: 6 nM

O=C(O)c1cccc(Cn2c(=O)n(Cc3nc4ccccc4[nH]3)c3ccccc32)c1
CC50 (HEp-2): > 194000 nM | selectivity ratio [1]: 6430 | EC50 [2]: 7 nM

CC(C)CCn1c(Cn2c(=O)n(CC(=O)NS(C)(=O)=O)c3ccccc32)nc2ccccc21
CC50 (HEp-2): 152000 nM | selectivity ratio [1]: 247 | EC50 [2]: 613 nM

C=C(C)n1c(=O)n(Cc2nc3ccccc3n2CCCc2nnn[nH]2)c2ccccc21
CC50 (HEp-2): > 330 nM | selectivity ratio [1]: > 23 | EC50 [2]: 14 nM

O=C(O)CN(CC(=O)O)C(=O)c1ccc(Cn2c(=O)n(Cc3nc4ccccc4n3CCCCO)c3ccccc32)cc1
CC50 (HEp-2): 112000 nM | selectivity ratio [1]: 1960 | EC50 [2]: 57 nM

CC(C)CCn1c(Cn2c(=O)n(CCCc3nnn[nH]3)c3ccccc32)nc2ccccc21
CC50 (HEp-2): 37100 nM | selectivity ratio [1]: 158 | EC50 [2]: 235 nM

C=C(C)n1c(=O)n(Cc2nc3ccccc3n2CCc2nnn[nH]2)c2ccccc21
CC50 (HEp-2): > 249000 nM | Activity (Cotton rat [4]): Toxic | EC50 [2]: 8 nM

CC(C)n1c(=O)n(Cc2nc3ccccc3n2CCc2nnn[nH]2)c2ccccc21
CC50 (HEp-2): 177000 nM | selectivity ratio [1]: 11800 | EC50 [2]: 15 nM

CC(C)CCn1c(Cn2c(=O)n(CCCCC(=O)O)c3ccccc32)nc2ccccc21
CC50 (HEp-2): 16500 nM | selectivity ratio [1]: 2060 | EC50 [2]: 8 nM

CC(C)CCn1c(Cn2c(=O)n(Cc3ccc(P(=O)(O)O)cc3)c3ccccc32)nc2ccccc21
Efficacy (Cotton rat [5]): 4 | CC50 (HEp-2): > 175000 nM | Efficacy (Cotton rat [6]): 3.5 | Efficacy (Cotton rat [7]): 2.1 | selectivity ratio [1]: 3000 | EC50 [2]: 27 nM | Efficacy (Cotton rat [8]): 4.4

CC(C)n1c(=O)n(Cc2nc3ccccc3n2CCc2noc(O)n2)c2ccccc21
CC50 (HEp-2): 75400 nM | Efficacy (Mus musculus [9]): 2.55 | selectivity ratio [1]: 3540 | Efficacy (Cotton rat [10]): 2.1 | EC50 [2]: 21 nM

NC(=O)c1ncn([C@@H]2O[C@H](CO)[C@@H](O)[C@H]2O)n1 [RIBAVIRIN]
Efficacy (Mus musculus [11]): 1.86 | Efficacy (Cotton rat [12]): 2.5

CC(C)CCn1c(Cn2c(=O)n(CCC(=O)O)c3ccccc32)nc2ccccc21
CC50 (HEp-2): 102000 nM | selectivity ratio [1]: 6810 | EC50 [2]: 15 nM

C=C(C)n1c(=O)n(Cc2nc3ccccc3n2Cc2nn[nH]n2)c2ccccc21
CC50 (HEp-2): 181000 nM | selectivity ratio [1]: 21 | EC50 [2]: 8440 nM

COc1ccc(Cn2c(=O)n(Cc3nc4ccccc4[nH]3)c3ccccc32)cc1
CC50 (HEp-2): 41100 nM | selectivity ratio [1]: 123 | EC50 [2]: 333 nM

CC(C)CCn1c(Cn2c(=O)n(Cc3ccc(Cn4c(=O)ccn(CC(=O)N[C@@H](CC(=O)O)C(=O)O)c4=O)cc3)c3ccccc32)nc2ccccc21
CC50 (HEp-2): > 106000 nM | Efficacy (Cotton rat [6]): 3.22 | Efficacy (Cotton rat [13]): 1.83 | selectivity ratio [1]: > 13200 | EC50 [2]: 8 nM

CC(C)CCn1c(Cn2c(=O)n(CC(=O)NS(=O)(=O)c3ccccc3)c3ccccc32)nc2ccccc21
CC50 (HEp-2): 14100 nM | selectivity ratio [1]: 12 | EC50 [2]: 1210 nM

CC(C)CCn1c(Cn2c(=O)n(CCCCc3nnn[nH]3)c3ccccc32)nc2ccccc21
CC50 (HEp-2): 14900 nM | selectivity ratio [1]: 993 | EC50 [2]: 15 nM

Oc1nc2ccccc2n1Cc1nc2ccccc2n1CCn1cnnn1
CC50 (HEp-2): 92000 nM | selectivity ratio [1]: 77 | EC50 [2]: 1200 nM

CN(C)CCCn1c(Cn2c(O)nc3ccccc32)nc2ccccc21
CC50 (HEp-2): 89100 nM | selectivity ratio [1]: 53 | EC50 [2]: 1660 nM

CC(C)CCn1c(Cn2c(=O)n(Cc3ccc(C(=O)O)cc3)c3ccccc32)nc2ccccc21
CC50 (HEp-2): 27300 nM | selectivity ratio [1]: 2480 | EC50 [2]: 11 nM

CC(C)CCn1c(Cn2c(=O)n(Cc3ccc(CP(=O)(O)O)cc3)c3ccccc32)nc2ccccc21
CC50 (HEp-2): 2800 nM | selectivity ratio [1]: 55 | EC50 [2]: 51 nM

CC(C)CCn1c(Cn2c(=O)n(Cc3ccc(C(=O)N[C@@H](CP(=O)(O)O)C(=O)O)cc3)c3ccccc32)nc2ccccc21
CC50 (HEp-2): > 114000 nM | selectivity ratio [1]: > 3350 | Efficacy (Cotton rat [10]): 2.43 | EC50 [2]: 34 nM

O=C(O)Cn1c(=O)n(Cc2nc3ccccc3n2CCCO)c2ccccc21
CC50 (HEp-2): 229000 nM | selectivity ratio [1]: 119 | EC50 [2]: 1930 nM

CC(C)CCn1c(Cn2c(=O)n(CCN(C)C)c3ccccc32)nc2ccccc21
CC50 (HEp-2): 10000 nM | selectivity ratio [1]: 25 | EC50 [2]: 400 nM

O=C(O)c1ccc(Cn2c(=O)n(Cc3nc4ccccc4n3CCCCO)c3ccccc32)cc1
CC50 (HEp-2): > 196000 nM | selectivity ratio [1]: > 49000 | EC50 [2]: 4 nM

CC(C)CCn1c(Cn2c(=O)n(CCCCCc3nnn[nH]3)c3ccccc32)nc2ccccc21
CC50 (HEp-2): 90000 nM | Activity (Cotton rat [7]; Sigmodon): Toxic | selectivity ratio [1]: 6920 | EC50 [2]: 13 nM

CC(C)CCn1c(Cn2c(=O)n(CCCCS(=O)(=O)O)c3ccccc32)nc2ccccc21
CC50 (HEp-2): 2900 nM | selectivity ratio [1]: 56 | EC50 [2]: 52 nM

Cn1c(=O)n(Cc2nc3ccccc3[nH]2)c2ccccc21
CC50 (HEp-2): > 202000 nM | selectivity ratio [1]: > 340 | EC50 [2]: 593 nM

CC(C)CCn1c(Cn2c(=O)n(Cc3ccc(C(=O)N[C@@H](CC(=O)O)C(=O)O)cc3)c3ccccc32)nc2ccccc21
CC50 (HEp-2): > 144000 nM | Efficacy (Cotton rat [7]): 2.6 | selectivity ratio [1]: > 28800 | EC50 [2]: 5 nM

Oc1nc2ccccc2n1Cc1nc2ccccc2[nH]1
CC50 (HEp-2): 228000 nM | selectivity ratio [1]: 226 | EC50 [2]: 1010 nM

CCOP(=O)(O)c1ccc(Cn2c(=O)n(Cc3nc4ccccc4n3CCC(C)C)c3ccccc32)cc1
CC50 (HEp-2): > 180000 nM | selectivity ratio [1]: > 3350 | EC50 [2]: 48 nM

CC(C)CCn1c(Cn2c(=O)n(Cc3ccccc3C(=O)O)c3ccccc32)nc2ccccc21
CC50 (HEp-2): 15700 nM | selectivity ratio [1]: 1430 | EC50 [2]: 11 nM

CC(C)CCn1c(Cn2c(=O)n(Cc3nn[nH]n3)c3ccccc32)nc2ccccc21
CC50 (HEp-2): > 210000 nM | selectivity ratio [1]: > 420 | EC50 [2]: 500 nM

C=C(C)n1c(=O)n(Cc2nc3ccccc3n2CCc2nn[nH]n2)c2ccccc21
selectivity ratio [1]: 14600

CC(C)CCn1c(Cn2c(=O)n(CCCCCC(=O)O)c3ccccc32)nc2ccccc21
CC50 (HEp-2): 16500 nM | selectivity ratio [1]: 1100 | EC50 [2]: 15 nM

C=C(C)n1c(=O)n(Cc2nc3ccccc3n2CCCN(C)C)c2ccccc21
CC50 (HEp-2): 19900 nM | selectivity ratio [1]: 265 | EC50 [2]: 75 nM

O=c1n(Cc2ccc(P(=O)(O)O)cc2)c2ccccc2n1Cc1nc2ccccc2[nH]1
CC50 (HEp-2): > 174000 nM | selectivity ratio [1]: > 473 | EC50 [2]: 368 nM

CC(C)CCn1c(Cn2c(=O)n(Cc3cccc(C(=O)O)c3)c3ccccc32)nc2ccccc21
CC50 (HEp-2): 10700 nM | selectivity ratio [1]: 1070 | EC50 [2]: 10 nM

CC(C)CCn1c(Cn2c(=O)n(Cc3ccc(Cn4c(=O)ccn(CC(=O)O)c4=O)cc3)c3ccccc32)nc2ccccc21
CC50 (HEp-2): > 159000 nM | selectivity ratio [1]: > 53000 | EC50 [2]: 3 nM

O=c1n(Cc2nc3ccccc3[nH]2)c2ccccc2n1Cc1ccccc1S(=O)(=O)O
CC50 (HEp-2): 130000 nM | selectivity ratio [1]: 9970 | EC50 [2]: 13 nM

CC(C)CCn1c(Cn2c(=O)n(CC(=O)O)c3ccccc32)nc2ccccc21
CC50 (HEp-2): 194000 nM | EC50 [2]: 163 nM

CC(C)CCn1c(Cn2c(=O)n(CCCC(=O)O)c3ccccc32)nc2ccccc21
CC50 (HEp-2): 138000 nM | selectivity ratio [1]: 1840 | EC50 [2]: 75 nM

CC(C)CCn1c(Cn2c(=O)n(CCCS(=O)(=O)O)c3ccccc32)nc2ccccc21
CC50 (HEp-2): 114000 nM | selectivity ratio [1]: 3010 | EC50 [2]: 38 nM

O=c1n(Cc2ccccc2)c2ccccc2n1Cc1nc2ccccc2[nH]1
CC50 (HEp-2): 129000 nM | selectivity ratio [1]: 1130 | EC50 [2]: 114 nM

CC(C)CCn1c(Cn2c(=O)n(Cc3ccccc3S(=O)(=O)O)c3ccccc32)nc2ccccc21
Efficacy (Cotton rat [14]): 2.25 | CC50 (HEp-2): > 19000 nM | selectivity ratio [1]: > 2710 | EC50 [2]: 7 nM
